According to patent US10287617B2, “Methods for in vitro—in vivo efficacy determination” (COLORADO STATE UNIVERSITY RESEARCH FOUNDATION, priority 2014, dated 2019):
Converted amounts (≈) assume the structure as drawn. “Also recorded” adds a separate entry of the source. Read-outs that look alike come from different tables or passages of the source. Marks after values point to notes of the source that are not given here.

How the values were obtained:
M. tuberculosis H37Rv [1] = experiment: MIC / dose response by modified microplate Alamar Blue assay (MABA); type: cell-based, Mycobacterium tuberculosis
M. tuberculosis TN587 = experiment: microbe, parasite or virus in culture; type: cell-based, Mycobacterium tuberculosis; conditions: Mycobacterium tuberculosis
M. tuberculosis NHN382 = experiment: microbe, parasite or virus in culture; type: cell-based, Mycobacterium tuberculosis; conditions: Mycobacterium tuberculosis
M. tuberculosis W210 = experiment: microbe, parasite or virus in culture; type: cell-based, Mycobacterium tuberculosis; conditions: Mycobacterium tuberculosis
M. tuberculosis NHN20 = experiment: microbe, parasite or virus in culture; type: cell-based, Mycobacterium tuberculosis; conditions: Mycobacterium tuberculosis
[2] = tested on: Mycobacteria tuberculosis; experiment: MIC and drug response curve type (Tables A and B); type: cell-based, Mycobacterium tuberculosis; conditions: Table A
Protocol: A drug concentration response curve can be generated by graphing the log10 drug concentrations (μg/mL) against the difference in growth between the drug-treated wells and control wells. See FIG. 3C, and FIG. 5 (entries for SB-P23D8 and SB-P26D9). A NREBA is indicative of bacteriostatic activity above the MIC.
(§1) Further analysis using the methods described herein was performed on the compounds found in Tables A and B (bold font compounds are shown in FIG. 11) resulting in the data found therein.
MIC values were determined for the benzimidazoles using a modified 96-well microplate Alamar Blue (resazurin) assay (MABA) (see Kumar et al., J. Med. Chem. 2011; 54:374-381; Collins and Franzblau, Antimicrob. Agents Chemother. 1997; 41:1004-1009). Dose response curves were generated from the MABA assay for compounds by graphing the log10 drug concentrations against the difference in growth between the drug-treated wells and control wells using GraphPad Prism Version 5.0d for Mac OS X (GraphPad Software, San Diego Calif., USA, www.graphpad.com). For time dose studies, bacterial growth in the presence of compound was monitored by the O.D. 600 nm. […] The values were plotted against time using GraphPad Prism Version 5.0d for Mac OS X (GraphPad Software, San Diego Calif., USA, www.graphpad.com).

M. tuberculosis = experiment: Benzimidazoles activity tested in animals (animal models of infection, Table A); type: in vivo, mouse; conditions: Table A
Protocol: as §1
Compound efficacy was assessed in two murine models of infection based on the short term model described previously (Lenaerts et al., Antimicrob. Agents Chemother. 2003; 47:783-785). All aerosol infections were performed using a Middlebrook aerosol generation devise (Glas-Col, Terre Haute, Ind.).

M. tuberculosis H37Rv [3] = experiment: Growth inhibition / time dose curves (OD600 and CFU); type: cell-based, Mycobacterium tuberculosis; conditions: for reduction in number of viable bacteria: 1×MIC
M. tuberculosis Erdman = type: in vivo; conditions: for Δ Lungs (difference between means of Test and Control Groups) / Δ Spleen (difference between means of Test and Control Groups) / Log10CFU Lungs / Log10CFU Spleen: 50 mg/kg b.i.d. (Inh q.d.); for Log10CFU Lungs / Log10CFU Spleen: day 15
[4] = Cytotoxicity assay (resazurin, 72 h); type: cell-based; conditions: African green monkey, Vero cells; 72 h
Protocol: (§2) The cytotoxicity assay was performed as described previously^16. Briefly compounds were serially diluted in 96 well plates.

Vero cells = experiment: Cytotoxicity assay (resazurin, 72 h); type: cell-based; conditions: at 200 μg/mL
Protocol: as §2

[5] = tested on: M. tuberculosis clinical isolates; experiment: microbe, parasite or virus in culture; type: cell-based, Mycobacterium tuberculosis; conditions: Mycobacterium tuberculosis, read-out: minimal inhibitory concentrations
[6] = 100 ng/mL
Protocol: Plasma was spiked with the compound in order to obtain a final drug concentration of 100 ng/mL (expressed as non-salified compound). The spiked plasma (dedicated to C1h and C4h) was then incubated at 37° C. for 1 h and 4 h. Plasma samples were analyzed by LC-MS/MS following protein precipitation. The limit of quantification for compounds was 10 ng/mL.
10 μL of the sample was injected to Luna Phenomenex C8 (50 mm×2.0 mm, 3 μm). Solvent A: ammonium acetate (0.15 g)/formic acid (2 mL)/HPLC water up to 1000 mL. Solvent B: ammonium acetate (0.15 g)/formic acid (2 mL)/Methanol (200 mL)/Acetonitrile up to 1000 mL, flow rate of 0.3 mL/min, t=0-6 min. gradient of 10-90% of B. Retention time for SB-P17G-C2 was 1.85 min and for SB-P17G-A20 was 3.3 min. MS/MS condition used for detection: Finnigan TSQ Quantum disco instrument, Excalibur version 2.0 acquisition system, ESI positive ion ionization mode. The mean percent of difference between C1h or C4h and C0 concentrations was calculated. M % D (%)=100×[(C1h or C4h)−C0]/C0
The compounds were considered as stable if the mean percent of difference between C4h and C0 concentrations was less than 20%.

[7] = Oxidative metabolic lability in human liver microsomes; conditions: 5 μM, 1 mg/mL microsomal protein, 20 min
Protocol: (§3) Microsomal fractions were prepared in the Drug Disposition Domain at DSAR Montpellier (371 rue du Pr. J. Blayac, 34184 Montpellier Cedex 04, France). […] The flavin-containing monooxygenases (FMO)-dependent reactions were run in the presence of bovine serum albumin (BSA, 0.1%) for the duration of 0 and 20 min (with or without microsomal proteins and/or cofactors). […] Following protein precipitation with acetonitrile and their removal by centrifugation, supernatant fluids were analyzed by LC/MS-MS.
(§4) Thermo Finnigan TSQ Quantum Ultra instrument, ESI positive ion ionization mode. Each compound is studied in duplicates. Results are expressed in percentage of lability (or total metabolism). Total metabolism=[1−(UC_Peak Area+Cofactor at T20)/(UC_Peak Area Reference at T0)]×100
(§5) The reactions were prepared as described and were run in the presence of bovine scrum albumin (BSA, 0.1%) for the duration of 0 and 20 min (with or without microsomal proteins and/or cofactors). Enzyme activity was stopped, the protein was precipitated and removed by centrifugation. The supernatant fluids were analyzed by LC/MS-MS. […] A Thermo Finnigan TSQ Quantum Ultra instrument, ESI positive ion ionization mode was used for MS/MS. Each compound was studied in duplicates. Results are expressed in percentage of lability (or total metabolism) using the following formula: Total metabolism=[1−(UC_Peak Area+Cofactor at T20)/(UC_Peak Area Reference at T0)]×100 where UC=Unchanged Compound; “Reference” sample was NADPH for liver microsomal preparation.

[8] = Oxidative metabolic lability in mouse liver microsomes; conditions: 5 μM, 1 mg/mL microsomal protein, 20 min
Protocol: as §3, §4, §5

CN(C)c1cc2[nH]c(C3CCCCC3)nc2cc1NC(=O)c1ccc(OC(F)(F)F)cc1F [SB-P17G-A38]
MIC (M. tuberculosis H37Rv [1]; H37Rv): 0.31 ± 0.22 µg/mL (≈ 0.667 µM)
MIC (M. tuberculosis H37Rv [1]; Mycobacterium tuberculosis, H37RV): 0.31 ± 0.22 µg/mL (≈ 0.667 µM)
MIC (M. tuberculosis TN587): 0.31 µg/mL (≈ 0.667 µM)
MIC (M. tuberculosis NHN382): 0.31 µg/mL (≈ 0.667 µM)
MIC (M. tuberculosis W210): 0.47 ± 0.22 µg/mL (≈ 1.01 µM)
MIC (M. tuberculosis NHN20): 0.24 ± 0.11 µg/mL (≈ 0.517 µM)
Curve ([2]; drug response curve type): Sigmoid
MIC ([2]; in µg/mL): .156
Efficacy Lung (M. tuberculosis): Yes
Efficacy Spleen (M. tuberculosis): Yes
reduction in number of viable bacteria (M. tuberculosis H37Rv [3]; day 2): 2.8 Log10 CFU
reduction in number of viable bacteria (M. tuberculosis H37Rv [3]; day 6): 2.9 Log10 CFU
reduction in bacterial viability (M. tuberculosis H37Rv [3]; 3-6×MIC): 3.6-4.4 Log10 CFU
reduction of bacterial load in the lungs (M. tuberculosis Erdman; 50 mg/kg b.i.d. via either IP or PO): 6.1-6.3 Log10 CFU
Δ Lungs (difference between means of Test and Control Groups) (M. tuberculosis Erdman; IP): −6.30*** Log10 CFU
Δ Spleen (difference between means of Test and Control Groups) (M. tuberculosis Erdman; IP): −4.96*** Log10 CFU
Log10CFU Lungs (M. tuberculosis Erdman; IP): 0.39 ± 0.63 Log10 CFU
Log10CFU Spleen (M. tuberculosis Erdman; IP): 0 ± 0 Log10 CFU
Δ Lungs (difference between means of Test and Control Groups) (M. tuberculosis Erdman; PO): −6.10*** Log10 CFU
Δ Spleen (difference between means of Test and Control Groups) (M. tuberculosis Erdman; PO): −3.89*** Log10 CFU
Log10CFU Lungs (M. tuberculosis Erdman; PO): 0.22 ± 0.34 Log10 CFU
Log10CFU Spleen (M. tuberculosis Erdman; PO): 0 ± 0 Log10 CFU
reduction of bacterial load in the lungs (M. tuberculosis Erdman; delivered IP, 50 mg/kg b.i.d.): 6.3 Log10 CFU
reduction of bacterial load in the lungs (M. tuberculosis Erdman; delivered PO, 50 mg/kg b.i.d.): 6.1 Log10 CFU
IC50 at 72 h [4]: > 200 µg/mL
cytotoxicity in Vero cells (Vero cells): not cytotoxic; also recorded: non-toxic
MIC [5]: 0.16 to 0.47 µg/mL (≈ 0.344 to 1.01 µM)
Plasma Stability (% hydrolysis) Mouse (4 h) [6]: −11.5%
Liver Microsome Lability Human [7]: 13%
Liver Microsome Lability Mouse [8]: 4%
